According to the CheMixHub ionic liquid set:

Assay: xn = mol fraction of the nth substance listed

[Cl][Al]([Cl])[Cl] + CCCC[n+]1ccn(C)c1.[Cl-]
Conditions | electrical conductivity [S/m] | viscosity [mPa·s]
270.1 K, 101.3 kPa, x2 = 0.5263 | 0.158 | –
270.1 K, 101.3 kPa, x2 = 0.5556 | 0.0827 | –
275.6 K, 101.3 kPa, x2 = 0.3333 | 0.36 | –
275.6 K, 101.3 kPa, x2 = 0.3636 | 0.38 | –
275.6 K, 101.3 kPa, x2 = 0.4 | 0.412 | –
275.6 K, 101.3 kPa, x2 = 0.4348 | 0.408 | –
276.1 K, 101.3 kPa, x2 = 0.4762 | 0.415 | –
276.1 K, 101.3 kPa, x2 = 0.5 | 0.423 | –
276.1 K, 101.3 kPa, x2 = 0.5556 | 0.135 | –
281.1 K, 101.3 kPa, x2 = 0.5263 | 0.328 | –
281.1 K, 101.3 kPa, x2 = 0.5556 | 0.189 | –
284.65 K, 101.3 kPa, x2 = 0.3333 | 0.578 | –
284.65 K, 101.3 kPa, x2 = 0.3636 | 0.588 | –
284.65 K, 101.3 kPa, x2 = 0.4 | 0.582 | –
284.65 K, 101.3 kPa, x2 = 0.4348 | 0.599 | –
284.65 K, 101.3 kPa, x2 = 0.4762 | 0.608 | –
284.65 K, 101.3 kPa, x2 = 0.5 | 0.616 | –
293.65 K, 101.3 kPa, x2 = 0.3333 | 0.774 | –
293.65 K, 101.3 kPa, x2 = 0.3636 | 0.803 | –
295.65 K, 101.3 kPa, x2 = 0.4 | 0.855 | –
295.65 K, 101.3 kPa, x2 = 0.4348 | 0.911 | –
295.65 K, 101.3 kPa, x2 = 0.4762 | 0.883 | –
295.65 K, 101.3 kPa, x2 = 0.5 | 0.916 | –
296.65 K, 101.3 kPa, x2 = 0.5263 | 0.639 | –
296.65 K, 101.3 kPa, x2 = 0.5556 | 0.417 | –
298.15 K, 101 kPa, x1 = 0.545 | 0.98 | 28.92
303.15 K, 101 kPa, x1 = 0.5238 | – | 26.36
303.15 K, 101 kPa, x1 = 0.5653 | – | 22.62
303.15 K, 101 kPa, x1 = 0.6429 | – | 17.68
303.15 K, 101 kPa, x1 = 0.643 | 1.06 | 17.7
303.15 K, 101 kPa, x1 = 0.667 | 1.05 | –
303.15 K, 101.3 kPa, x2 = 0.3333 | 1.02 | –
304.15 K, 101.3 kPa, x2 = 0.3333 | 1.05 | –
304.65 K, 101.3 kPa, x2 = 0.5263 | 0.868 | –
304.65 K, 101.3 kPa, x2 = 0.5556 | 0.586 | –
305.15 K, 101.3 kPa, x2 = 0.3333 | 1.07 | –
305.15 K, 101.3 kPa, x2 = 0.4 | 1.14 | –
305.15 K, 101.3 kPa, x2 = 0.5 | 1.25 | –
306.15 K, 101.3 kPa, x2 = 0.3636 | 1.16 | –
306.15 K, 101.3 kPa, x2 = 0.4348 | 1.22 | –
308.15 K, 101 kPa, x1 = 0.615 | 1.23 | 16.72
315.15 K, 101.3 kPa, x2 = 0.4762 | 1.57 | –
315.15 K, 101.3 kPa, x2 = 0.5263 | 1.2 | –
315.15 K, 101.3 kPa, x2 = 0.5556 | 0.851 | –
316.15 K, 101.3 kPa, x2 = 0.3333 | 1.41 | –
316.15 K, 101.3 kPa, x2 = 0.4 | 1.5 | –
316.15 K, 101.3 kPa, x2 = 0.5 | 1.68 | –
318.15 K, 101 kPa, x1 = 0.667 | 1.5 | 11.35
318.15 K, 101.3 kPa, x2 = 0.3636 | 1.54 | –
318.15 K, 101.3 kPa, x2 = 0.4348 | 1.69 | –
322.15 K, 101.3 kPa, x2 = 0.3333 | 1.62 | –
323.15 K, 101 kPa, x1 = 0.5 | – | 16.06
323.15 K, 101 kPa, x1 = 0.6296 | – | 11.12
324.15 K, 101.3 kPa, x2 = 0.5 | 1.98 | –
324.15 K, 101.3 kPa, x2 = 0.5263 | 1.5 | –
324.15 K, 101.3 kPa, x2 = 0.5556 | 1.09 | –
325.15 K, 101.3 kPa, x2 = 0.4 | 1.87 | –
326.15 K, 101.3 kPa, x2 = 0.3636 | 1.82 | –
326.15 K, 101.3 kPa, x2 = 0.4348 | 1.95 | –
328.15 K, 101 kPa, x1 = 0.643 | 1.88 | 9.76
331.15 K, 101.3 kPa, x2 = 0.4762 | 2.25 | –
332.15 K, 101.3 kPa, x2 = 0.3333 | 2 | –
333.15 K, 101 kPa, x1 = 0.5238 | – | 12.28
333.15 K, 101 kPa, x1 = 0.6001 | – | 9.9
333.15 K, 101 kPa, x1 = 0.615 | 2.16 | 9.5
333.15 K, 101 kPa, x1 = 0.6296 | – | 9.15
333.15 K, 101.3 kPa, x2 = 0.4 | 2.21 | –
333.15 K, 101.3 kPa, x2 = 0.5 | 2.43 | –
334.15 K, 101.3 kPa, x2 = 0.3636 | 2.15 | –
334.15 K, 101.3 kPa, x2 = 0.4348 | 2.33 | –
334.15 K, 101.3 kPa, x2 = 0.5263 | 1.94 | –
334.15 K, 101.3 kPa, x2 = 0.5556 | 1.42 | –
340.15 K, 101.3 kPa, x2 = 0.3333 | 2.29 | –
340.15 K, 101.3 kPa, x2 = 0.4762 | 2.65 | –
342.15 K, 101.3 kPa, x2 = 0.3636 | 2.45 | –
342.65 K, 101.3 kPa, x2 = 0.4348 | 2.72 | –
343.15 K, 101 kPa, x1 = 0.5834 | – | 8.63
343.15 K, 101.3 kPa, x2 = 0.4 | 2.62 | –
343.65 K, 101.3 kPa, x2 = 0.5 | 2.92 | –
344.15 K, 101.3 kPa, x2 = 0.5263 | 2.39 | –
345.15 K, 101.3 kPa, x2 = 0.5556 | 1.81 | –
347.15 K, 101.3 kPa, x2 = 0.3333 | 2.58 | –
347.15 K, 101.3 kPa, x2 = 0.4762 | 3.04 | –
350.15 K, 101.3 kPa, x2 = 0.3636 | 2.86 | –
351.15 K, 101.3 kPa, x2 = 0.4348 | 3.15 | –
351.65 K, 101.3 kPa, x2 = 0.4 | 3.02 | –
351.65 K, 101.3 kPa, x2 = 0.5 | 3.33 | –
352.15 K, 101.3 kPa, x2 = 0.5263 | 2.81 | –
352.15 K, 101.3 kPa, x2 = 0.5556 | 2.12 | –
358.15 K, 101.3 kPa, x2 = 0.3333 | 3 | –
358.15 K, 101.3 kPa, x2 = 0.4762 | 3.59 | –
360.15 K, 101.3 kPa, x2 = 0.3636 | 3.29 | –
360.15 K, 101.3 kPa, x2 = 0.4348 | 3.59 | –
361.15 K, 101.3 kPa, x2 = 0.4 | 3.46 | –
361.15 K, 101.3 kPa, x2 = 0.5 | 3.86 | –
361.65 K, 101.3 kPa, x2 = 0.5263 | 3.32 | –
361.65 K, 101.3 kPa, x2 = 0.5556 | 2.56 | –
367.15 K, 101.3 kPa, x2 = 0.3333 | 3.41 | –
367.15 K, 101.3 kPa, x2 = 0.4762 | 4.14 | –
370.15 K, 101.3 kPa, x2 = 0.3636 | 3.7 | –
370.15 K, 101.3 kPa, x2 = 0.4348 | 4.08 | –
370.15 K, 101.3 kPa, x2 = 0.5263 | 3.76 | –
370.15 K, 101.3 kPa, x2 = 0.5556 | 2.97 | –
371.15 K, 101.3 kPa, x2 = 0.4 | 3.96 | –
371.15 K, 101.3 kPa, x2 = 0.5 | 4.49 | –
379.15 K, 101.3 kPa, x2 = 0.3333 | 4.07 | –
379.15 K, 101.3 kPa, x2 = 0.4762 | 4.87 | –

Conditions | electrical conductivity [S/m]
306.15 K, 101 kPa, frequency 1 MHz, x2 = 0.625 | 0.227

CC[N+](C)(CC)CCOC.O=S(=O)([N-]S(=O)(=O)C(F)(F)F)C(F)(F)F + CCCCn1cc[n+](C)c1C.O=S(=O)([N-]S(=O)(=O)C(F)(F)F)C(F)(F)F
100 kPa
Conditions | electrical conductivity [S/m]
293.15 K, x1 = 0.2 | 0.192
293.15 K, x1 = 0.5 | 0.202
298.15 K, x1 = 0.2 | 0.256
313.15 K, x1 = 0.5 | 0.517
313.15 K, x1 = 0.7 | 0.527
318.15 K, x1 = 0.2 | 0.594
323.15 K, x1 = 0.7 | 0.755
328.15 K, x1 = 0.1 | 0.82
328.15 K, x1 = 0.3 | 0.845
328.15 K, x1 = 0.4 | 0.847
333.15 K, x1 = 0.6 | 0.999
343.15 K, x1 = 0.1 | 1.24
343.15 K, x1 = 0.2 | 1.24
